Test results published in the CheMixHub ionic liquid set.
± gives the uncertainty stated by the source.

Test: xn = mol fraction of the nth substance listed
Conditions: 100 kPa

O=C(O)c1cccnc1 + CCCC[n+]1ccn(C)c1.[Br-] + O
viscosity [mPa·s]
Conditions | 308.15 K | 313.15 K | 318.15 K
x1 = 0.0002684, x2 = 0 | 0.734 ± 0.031 | 0.666 ± 0.031 | 0.61 ± 0.031
x1 = 0.0002711, x2 = 0.0008999 | 0.754 ± 0.031 | 0.677 ± 0.031 | 0.62 ± 0.031
x1 = 0.0002757, x2 = 0.001798 | 0.759 ± 0.031 | 0.69 ± 0.031 | 0.632 ± 0.031
x1 = 0.0002802, x2 = 0.002695 | 0.796 ± 0.031 | 0.75 ± 0.031 | 0.681 ± 0.031
x1 = 0.0005421, x2 = 0 | 0.737 ± 0.031 | 0.669 ± 0.031 | 0.614 ± 0.031
x1 = 0.0005475, x2 = 0.0008997 | 0.756 ± 0.031 | 0.678 ± 0.031 | 0.621 ± 0.031
x1 = 0.0005493, x2 = 0.001798 | 0.761 ± 0.031 | 0.691 ± 0.031 | 0.633 ± 0.031
x1 = 0.0005547, x2 = 0.002694 | 0.797 ± 0.031 | 0.751 ± 0.031 | 0.682 ± 0.031
x1 = 0.0008084, x2 = 0 | 0.742 ± 0.031 | 0.673 ± 0.031 | 0.617 ± 0.031
x1 = 0.0008166, x2 = 0.0008994 | 0.758 ± 0.031 | 0.68 ± 0.031 | 0.622 ± 0.031
x1 = 0.0008283, x2 = 0.001797 | 0.763 ± 0.031 | 0.693 ± 0.031 | 0.634 ± 0.031
x1 = 0.0008364, x2 = 0.002693 | 0.799 ± 0.031 | 0.753 ± 0.031 | 0.683 ± 0.031
x1 = 0.001084, x2 = 0 | 0.746 ± 0.031 | 0.677 ± 0.031 | 0.62 ± 0.031
x1 = 0.001093, x2 = 0.0008992 | 0.759 ± 0.031 | 0.681 ± 0.031 | 0.624 ± 0.031
x1 = 0.001104, x2 = 0.001797 | 0.765 ± 0.031 | 0.694 ± 0.031 | 0.635 ± 0.031
x1 = 0.001114, x2 = 0.002693 | 0.801 ± 0.031 | 0.754 ± 0.031 | 0.684 ± 0.031
x1 = 0.001351, x2 = 0 | 0.75 ± 0.031 | 0.681 ± 0.031 | 0.624 ± 0.031
x1 = 0.001363, x2 = 0.000899 | 0.762 ± 0.031 | 0.683 ± 0.031 | 0.625 ± 0.031
x1 = 0.001377, x2 = 0.001796 | 0.767 ± 0.031 | 0.696 ± 0.031 | 0.636 ± 0.031
x1 = 0.00139, x2 = 0.002692 | 0.803 ± 0.031 | 0.756 ± 0.031 | 0.686 ± 0.031
x1 = 0.001619, x2 = 0 | 0.754 ± 0.031 | 0.685 ± 0.031 | 0.628 ± 0.031
x1 = 0.001635, x2 = 0.0008987 | 0.763 ± 0.031 | 0.684 ± 0.031 | 0.619 ± 0.031
x1 = 0.001652, x2 = 0.001796 | 0.768 ± 0.031 | 0.697 ± 0.031 | 0.638 ± 0.031
x1 = 0.001666, x2 = 0.002691 | 0.805 ± 0.031 | 0.757 ± 0.031 | 0.687 ± 0.031
